# In US20070249590A1, “Substituted indolo[2,3-a]pyrrolo[3,4-c]carbazole compounds useful in treating kinase disorders” (priority 2005, published 2007):
# Target: T1, JAK3 (JH1 and JH2 domain) (Homo sapiens, UniProt P52333)
# T1 sequence (P52333 521-1111 limits assumed): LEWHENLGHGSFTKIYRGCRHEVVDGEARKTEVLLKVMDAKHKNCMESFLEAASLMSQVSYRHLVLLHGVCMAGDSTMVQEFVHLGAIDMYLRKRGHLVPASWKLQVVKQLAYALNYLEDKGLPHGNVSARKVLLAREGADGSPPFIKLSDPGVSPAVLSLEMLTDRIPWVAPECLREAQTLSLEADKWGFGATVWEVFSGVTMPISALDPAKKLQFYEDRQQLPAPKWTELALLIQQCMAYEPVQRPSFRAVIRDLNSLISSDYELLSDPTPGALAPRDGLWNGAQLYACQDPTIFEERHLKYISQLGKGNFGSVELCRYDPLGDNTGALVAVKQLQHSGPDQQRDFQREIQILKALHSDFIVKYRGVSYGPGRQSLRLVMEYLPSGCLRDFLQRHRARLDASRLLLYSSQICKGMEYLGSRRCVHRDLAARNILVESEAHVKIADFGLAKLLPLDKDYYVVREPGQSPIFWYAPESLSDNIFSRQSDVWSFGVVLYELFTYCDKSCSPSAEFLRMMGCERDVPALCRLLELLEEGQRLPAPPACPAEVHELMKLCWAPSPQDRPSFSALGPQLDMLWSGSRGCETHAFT
# Assay: JAK3 Kinase Assay (ELISA of peptide substrate phosphorylation)
# Assay type: biochemical
# Conditions: purified JAK3 enzyme, 10 μM ATP, biotinylated peptide substrate, 1 hour at room temperature
# Summary of the method: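 Sf21-baculovirus-expressed JAK3 (JH1+JH2), glutathione-bead purified, with biotinylated peptide substrate (in buffer containing 10 μM ATP) in HEPES pH 7.5/MgCl2/DTT, 1 h RT. Product was captured on Neutravidin, detected with HRP anti-phosphotyrosine (PY99)/TMB, OD 450/650 nm. Triplicate 16-point half-log series from 200 μM gave IC50; otherwise % inhibition at 1 μM.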
row,Compound,IC50 [nM]
1,"CN(C)CCCN1CCN(C(=O)OC2CCCn3c4ccccc4c4c5c(c6c7ccccc7n(c6c43)C2)C(=O)NC5=O)CC1 (centres unmarked) [Cpd 115, 12,13-(2-{[4-(3-dimethylamino-prop-1-yl)piperazin-1-y]carbonyloxy}-pentan-1,5-yl)-12,13-dihydro-5,7-dioxo-6H-indolo[2,3-a]pyrrolo[3,4-c]carbazole]",> 200
2,"COCCNC(=O)OCC1Cn2c3ccccc3c3c4c(c5c6ccccc6n(c5c32)C1)C(=O)NC4 (centres unmarked) [Cpd 154, 12,13-{2-[(2-methoxy-ethyl)carbamoyloxymethyl]propan-1,3-yl]-6,7,12,13-tetrahydro-5-oxo-5H-indolo[2,3-a]pyrrolo[3,4-c]carbazole]",84
3,"CC(C)NC(=O)C1(O)Cn2c3ccccc3c3c4c(c5c6ccccc6n(c5c32)CC1O)C(=O)NC4=O (centres unmarked) [Cpd 123, 12,13-[2-(isopropyl-carbamoyl)-2,3-dihydroxy-butan-1,4-yl]-12,13-dihydro-5,7-dioxo-6H-indolo[2,3-a]pyrrolo[3,4-c]carbazole]",80
4,"O=C(NCc1ccc2c(c1)OCO2)OC1Cn2c3ccccc3c3c4c(c5c6ccccc6n(c5c32)CC1O)C(=O)NC4=O (centres unmarked) [Cpd 80, 12,13-{2-[(benzo[1,3]dioxol-5-yl-methyl)carbamoyloxy]-3-hydroxy-butan-1,4-yl}-12,13-dihydro-5,7-dioxo-6H-indolo[2,3-a]pyrrolo[3,4-c]carbazole]",100
5,"Cc1ncsc1/C=C/c1ccc2c(c1)c1c3c(c4c5ccccc5n5c4c1n2CC(CO)C5)CNC3=O (centres unmarked) [Cpd 217, 3-[(2E)-2-(4-methyl-thiazol-5-yl)ethenyl]-12,13-(2-hydroxymethyl-propan-1,3-yl)-6,7,12,13-tetrahydro-5-oxo-5H-indolo[2,3-a]pyrrolo[3,4-c]carbazole]",592
6,"CN(C)CCSCc1ccc2c(c1)c1c3c(c4c5ccccc5n5c4c1n2CC(O)C(O)C5)CNC3=O (centres unmarked) [Cpd 199, 3-[(2-dimethylamino-ethyl)thiomethyl]-12,13-(2,3-dihydroxy-butan-1,4-yl)-6,7,12,13-tetrahydro-5-oxo-5H-indolo[2,3-a]pyrrolo[3,4-c]carbazole]",309
7,"O=C(O)/C=C/c1ccc2c(c1)c1c3c(c4c5ccccc5n5c4c1n2CC(CO)C5)CNC3=O (centres unmarked) [Cpd 218, 3-[(2E)-2-carboxy-ethenyl]-12,13-(2-hydroxymethyl-propan-1,3-yl)-6,7,12,13-tetrahydro-5-oxo-5H-indolo[2,3-a]pyrrolo[3,4-c]carbazole]",686
8,"O=C(NCCCN1CCCC1=O)OCC1(O)Cn2c3ccccc3c3c4c(c5c6ccccc6n(c5c32)C1)C(=O)NC4 (centres unmarked) [Cpd 140, 12,13-(2-hydroxy-2-{[3-(2-oxo-pyrrolidin-1-yl)-prop-1-yl]carbamoyloxymethyl}-propan-1,3-yl)-6,7,12,13-tetrahydro-5-oxo-5H-indolo[2,3-a]pyrrolo[3,4-c]carbazole]",72
9,"CC(C)OCc1ccc2c(c1)c1c3c(c4c5cc(COC(C)C)ccc5n5c4c1n2CC(CO)C5)C(=O)NC3 (centres unmarked) [Cpd 210, 3,9-bis-(isopropoxymethyl)-12,13-(2-hydroxymethyl-propan-1,3-yl)-6,7,12,13-tetrahydro-5-oxo-5H-indolo[2,3-a]pyrrolo[3,4-c]carbazole]",1050
10,"CN1CCN(Cc2ccc3c(c2)c2c4c(c5c6ccccc6n6c5c2n3CC(O)C(O)C6)CNC4=O)CC1 (centres unmarked) [Cpd 193, 3-(4-methyl-piperazin-1-ylmethyl)-12,13-(2,3-dihydroxy-butan-1,4-yl)-6,7,12,13-tetrahydro-5-oxo-5H-indolo[2,3-a]pyrrolo[3,4-c]carbazole]",135
11,"O=C1NC(=O)c2c1c1c3ccccc3n3c1c1c2c2ccccc2n1CC(OC(=O)N1CCCNCC1)CC3 (centres unmarked) [Cpd 60, 12,13-{2-[(hexahydro-1H-1,4-diazepin-1-yl)carbonyloxy]-butan-1,4-yl}-12,13-dihydro-5,7-dioxo-6H-indolo[2,3-a]pyrrolo[3,4-c]carbazole]",156
12,"CN(C)[C@H]1CCN(C(=O)OCC2Cn3c4ccccc4c4c5c(c6c7ccccc7n(c6c43)C2)C(=O)NC5)C1 (stereo partly drawn) [Cpd 171, 12,13-(2-{[(3S)-3-dimethylamino-pyrrolidin-1-yl]carbonyloxymethyl}-propan-1,3-yl)-6,7,12,13-tetrahydro-5-oxo-5H-indolo[2,3-a]pyrrolo[3,4-c]carbazole]",677
13,"O=C1NCc2c1c1c3ccccc3n3c1c1c2c2ccccc2n1CCC(OC(=O)N1CCN(c2ccncc2)CC1)CC3 (centres unmarked) [Cpd 184, 12,13-{3-[(4-pyridin-4-yl-piperazin-1-yl)carbonyloxy]-pentan-1,5-yl}-6,7,12,13-tetrahydro-5-oxo-5H-indolo[2,3-a]pyrrolo[3,4-c]carbazole]",4360
14,"CN(C(=O)OC1CCn2c3ccccc3c3c4c(c5c6ccccc6n(c5c32)C1)C(=O)NC4=O)C1CCN(Cc2ccccc2)C1 (centres unmarked) [Cpd 61, 12,13-{2-[N-methyl-N-(1-benzyl-pyrrolidin-3-yl)carbamoyloxy]-butan-1,4-yl}-12,13-dihydro-5,7-dioxo-6H-indolo[2,3-a]pyrrolo[3,4-c]carbazole]",543
15,"O=C1NC(=O)c2c1c1c3ccccc3n3c1c1c2c2ccccc2n1CC(OC(=O)N1CCN(C(c2ccccc2)c2ccccc2)CC1)C(O)C3 (centres unmarked) [Cpd 103, 12,13-{2-[(4-benzhydryl-piperazin-1-yl)carbonyloxy]-3-hydroxy-butan-1,4-yl}-12,13-dihydro-5,7-dioxo-6H-indolo[2,3-a]pyrrolo[3,4-c]carbazole]",436
16,"CC(=O)c1ccc(N2CCN(C(=O)OC3CCn4c5ccccc5c5c6c(c7c8ccccc8n(c7c54)C3)C(=O)NC6=O)CC2)cc1 (centres unmarked) [Cpd 59, 12,13-(2-{[4-(4-methylcarbonyl-phenyl)piperazin-1-yl]carbonyloxy}-butan-1,4-yl)-12,13-dihydro-5,7-dioxo-6H-indolo[2,3-a]pyrrolo[3,4-c]carbazole]",547

# Continued by falling IC50, values first:
row,IC50 [nM],Compound
1,72,"C/C1=C(\C)Cn2c3ccccc3c3c4c(c5c6ccccc6n(c5c32)C1)CNC4=O [Cpd 4, 12,13-(2,3-dimethyl-but-2-en-1,4-yl)-6,7,12,13-tetrahydro-5-oxo-5H-indolo[2,3-a]pyrrolo[3,4-c]carbazole]"
2,46,"CN1CCC(N(C)C(=O)OC2Cn3c4ccccc4c4c5c(c6c7ccccc7n(c6c43)CC2O)C(=O)NC5=O)C1 (centres unmarked) [Cpd 108, 12,13-(2-{[N-methyl-N-(1-methyl-pyrrolidin-3-yl)]carbamoyloxy}-3-hydroxy-butan-1,4-yl)-12,13-dihydro-5,7-dioxo-6H-indolo[2,3-a]pyrrolo[3,4-c]carbazole]"
3,45,"CC1(C)O[C@@H]2Cn3c4ccccc4c4c5c(c6c7ccccc7n(c6c43)C[C@H]2O1)C(=O)NC5 [Cpd 17, 12,13-[(4R,5R)-2,2-dimethyl-[1,3]dioxolo[4,5-b]butan-1,4-yl]-6,7,12,13-tetrahydro-5-oxo-5H-indolo[2,3-a]pyrrolo[3,4-c]carbazole]"
4,40,"O=C1NCc2c1c1c3ccccc3n3c1c1c2c2ccccc2n1C/C=C\C3 [Cpd 2, 12,13-(but-2-en-1,4-yl)-6,7,12,13-tetrahydro-5-oxo-5H-indolo[2,3-a]pyrrolo[3,4-c]carbazole]"
5,39,"O=C1NCc2c1c1c3ccccc3n3c1c1c2c2ccccc2n1CC(O)(COC(=O)N1CCC(O)CC1)C3 (centres unmarked) [Cpd 149, 12,13-{2-hydroxy-2-[(4-hydroxy-piperidin-1-yl)carbonyloxymethyl]-propan-1,3-yl}-6,7,12,13-tetrahydro-5-oxo-5H-indolo[2,3-a]pyrrolo[3,4-c]carbazole]"
6,31,"O=C1NCc2c1c1c3cc(/C=C/CNC4=NCCN4)ccc3n3c1c1c2c2ccccc2n1CC(CO)C3 (centres unmarked) [Cpd 221, 3-{(1E)-3-[(4,5-dihydro-1H-imidazol-2-yl)amino]-prop-1-en-1-yl}-12,13-(2-hydroxymethyl-propan-1,3-yl)-6,7,12,13-tetrahydro-5-oxo-5H-indolo[2,3-a]pyrrolo[3,4-c]carbazole]"
7,25,"CN(C)CCN(C)C(=O)OCC1(O)Cn2c3ccccc3c3c4c(c5c6ccccc6n(c5c32)C1)C(=O)NC4 (centres unmarked) [Cpd 148, 12,13-(2-hydroxy-2-{[N-methyl-N-(2-dimethylamino-ethyl)]carbamoyloxymethyl}-propan-1,3-yl)-6,7,12,13-tetrahydro-5-oxo-5H-indolo[2,3-a]pyrrolo[3,4-c]carbazole]"
8,9,"O=C1NC(=O)c2c1c1c3ccccc3n3c1c1c2c2ccccc2n1CC(O)C(O)CC3 (centres unmarked) [Cpd 11, 12,13-(2,3-dihydroxy-pentan-1,5-yl)-12,13-dihydro-5,7-dioxo-6H-indolo[2,3-a]pyrrolo[3,4-c]carbazole]"
9,7,"Nc1ccc2c(c1)c1c3c(c4c5ccccc5n5c4c1n2CC(O)C(O)C5)CNC3=O (centres unmarked) [Cpd 192, 3-amino-12,13-(2,3-dihydroxy-butan-1,4-yl)-6,7,12,13-tetrahydro-5-oxo-5H-indolo[2,3-a]pyrrolo[3,4-c]carbazole]"
10,1,"COC(=O)C1(O)Cn2c3ccccc3c3c4c(c5c6ccccc6n(c5c32)CC1O)C(=O)NC4=O (centres unmarked) [Cpd 12, 12,13-(2-methoxycarbonyl-2,3-dihydroxy-butan-1,4-yl)-12,13-dihydro-5,7-dioxo-6H-indolo[2,3-a]pyrrolo[3,4-c]carbazole]"
